Results as given in patent publication US20250171437A1 (Agios Pharmaceuticals,Inc., priority 2022, published 2025).

The compounds below were run against T1, human PAH with the R408W mutation (A375 R408W cells) (Homo sapiens, UniProt P00439, R408W) (assay: Cell Based Phenylalanine Flux Assay). Conditions: A375 R408W cells; 24 hrs with compound, then 20 μM sepiapterin and 800 μM 13C9,15N-Phenylalanine for 4 hours; 13C-Tyrosine by LC-MS; average where tested multiple times.
T1 construct: expressed in transfected cells
T1 sequence (P00439 1-452 R408W): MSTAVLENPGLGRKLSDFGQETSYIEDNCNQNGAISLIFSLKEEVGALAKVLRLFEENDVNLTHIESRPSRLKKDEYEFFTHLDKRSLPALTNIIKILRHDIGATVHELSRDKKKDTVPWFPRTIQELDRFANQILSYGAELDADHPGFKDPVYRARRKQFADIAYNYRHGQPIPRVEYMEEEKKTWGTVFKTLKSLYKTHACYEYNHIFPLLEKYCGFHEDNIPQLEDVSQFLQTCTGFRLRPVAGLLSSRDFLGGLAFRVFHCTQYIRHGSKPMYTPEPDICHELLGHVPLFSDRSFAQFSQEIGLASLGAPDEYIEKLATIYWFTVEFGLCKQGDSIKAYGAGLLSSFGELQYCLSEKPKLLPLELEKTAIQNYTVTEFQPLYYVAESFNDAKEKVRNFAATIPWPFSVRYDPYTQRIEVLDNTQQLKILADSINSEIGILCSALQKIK
In short: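 A375 cells stably expressing lentiviral human PAH R408W were treated with compounds (10-point 2-fold dilutions, 0.5% DMSO, duplicate) for 24 h at 37 °C. Then 20 μM sepiapterin and 800 μM 13C9,15N-Phe were added for 4 h; media 13C-Tyr was measured by LC-MS to give AC50.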

`O=C(c1nnc(-c2ncccc2F)o1)N1CCc2[nH]cnc2[C@@H]1c1nc2cccc(F)c2o1` [Example 867, (R)-(4-(7-fluorobenzo[d]oxazol-2-yl)-6,7-dihydro-1H-imidazo[4,5-c]pyridin-5(4H)-yl)(5-(3-fluoropyridin-2-yl)-1,3,4-oxadiazol-2-yl)methanone] and `O=C(c1nnc(-c2ncccc2F)o1)N1CCc2[nH]cnc2[C@@H]1c1nc2ccccc2o1` [Example 834, (R)-(4-(benzo[d]oxazol-2-yl)-6,7-dihydro-1H-imidazo[4,5-c]pyridin-5(4H)-yl)(5-(3-fluoropyridin-2-yl)-1,3,4-oxadiazol-2-yl)methanone] fall in the same range of AC50: 500 to 1000 nM for the first, 500 to 1000 nM for the second.

Compared with `Cc1cccc2nc([C@H]3c4nc[nH]c4CCN3C(=O)c3cnco3)oc12` [Example 612, (R)-(4-(7-methylbenzo[d]oxazol-2-yl)-6,7-dihydro-1H-imidazo[4,5-c]pyridin-5(4H)-yl)(oxazol-5-yl)methanone], `Cc1cccc2oc([C@@H]3c4nc[nH]c4CCN3C(=O)c3ncnn3C)nc12` [Example 901, (S)-(1-methyl-1H-1,2,4-triazol-5-yl)(4-(4-methylbenzo[d]oxazol-2-yl)-6,7-dihydro-1H-imidazo[4,5-c]pyridin-5(4H)-yl)methanone] is lower in AC50: 1000 to 5000 nM for the first, 500 to 1000 nM for the second.

`Cc1ccc(C)c2oc([C@@H]3c4nc[nH]c4CCN3C(=O)c3ocnc3C(F)F)nc12` [Example 890, (S)-(4-(difluoromethyl)oxazol-5-yl)(4-(4,7-dimethylbenzo[d]oxazol-2-yl)-6,7-dihydro-1H-imidazo[4,5-c]pyridin-5(4H)-yl)methanone] and `Cc1ccc2nc([C@@H]3c4nc[nH]c4CCN3C(=O)c3ocnc3C(F)F)oc2c1` [Example 884, (S)-(4-(difluoromethyl)oxazol-5-yl)(4-(6-methylbenzo[d]oxazol-2-yl)-6,7-dihydro-1H-imidazo[4,5-c]pyridin-5(4H)-yl)methanone] cannot be ordered by AC50: at most 500 nM for the first, at most 500 nM for the second.

Compared with `Cn1cnc(-c2nnc(C(=O)N3CCc4[nH]cnc4[C@@H]3c3nc4c(F)ccc(F)c4o3)o2)c1` [Example 818, (R)-(4-(4,7-difluorobenzo[d]oxazol-2-yl)-6,7-dihydro-1H-imidazo[4,5-c]pyridin-5(4H)-yl)(5-(1-methyl-1H-imidazol-4-yl)-1,3,4-oxadiazol-2-yl)methanone], `Cn1cc(-c2nnc(C(=O)N3CCc4[nH]cnc4[C@H]3c3nc4c(F)cc(F)cc4o3)o2)cn1` [Example 522, (S)-(4-(4,6-difluorobenzo[d]oxazol-2-yl)-6,7-dihydro-1H-imidazo[4,5-c]pyridin-5(4H)-yl)(5-(1-methyl-1H-pyrazol-4-yl)-1,3,4-oxadiazol-2-yl)methanone] is lower in AC50: 1000 to 5000 nM for the first, 500 to 1000 nM for the second.

First: Cn1cc(-c2nc(C(F)F)c(C(=O)N3CCc4[nH]cnc4[C@@H]3c3nc4cc(F)ccc4o3)o2)cn1 [Example 87, (R)-(4-(difluoromethyl)-2-(1-methyl-1H-pyrazol-4-yl)oxazol-5-yl)(4-(5-fluorobenzo[d]oxazol-2-yl)-6,7-dihydro-1H-imidazo[4,5-c]pyridin-5(4H)-yl)methanone]
Second: COc1ccc2oc([C@@H]3c4nc[nH]c4CCN3C(=O)c3nnc(-c4cnn(C)c4)o3)nc2c1 [Example 553, (S)-(4-(5-methoxybenzo[d]oxazol-2-yl)-6,7-dihydro-1H-imidazo[4,5-c]pyridin-5(4H)-yl)(5-(1-methyl-1H-pyrazol-4-yl)-1,3,4-oxadiazol-2-yl)methanone]
The AC50 of the first is higher: 1000 to 5000 nM for the first, 500 to 1000 nM for the second.

`Cn1nc(C(F)F)nc1C(=O)N1CCc2[nH]cnc2[C@H]1c1nc2ccccc2o1` [Example 561, (S)-(4-(benzo[d]oxazol-2-yl)-6,7-dihydro-1H-imidazo[4,5-c]pyridin-5(4H)-yl)(3-(difluoromethyl)-1-methyl-1H-1,2,4-triazol-5-yl)methanone] and `Cc1nc(C(=O)N2CCc3[nH]cnc3[C@H]2c2nc3c(C)cccc3o2)n(C)n1` [Example 819, (S)-(1,3-dimethyl-1H-1,2,4-triazol-5-yl)(4-(4-methylbenzo[d]oxazol-2-yl)-6,7-dihydro-1H-imidazo[4,5-c]pyridin-5(4H)-yl)methanone] fall in the same range of AC50: 500 to 1000 nM for the first, 500 to 1000 nM for the second.

Compared with `Cn1cc(-c2nnc(C(=O)N3CCc4[nH]cnc4[C@@H]3c3nc4cc(F)ccc4o3)o2)c(C(F)(F)F)n1` [Example 117, (R)-(4-(5-fluorobenzo[d]oxazol-2-yl)-6,7-dihydro-1H-imidazo[4,5-c]pyridin-5(4H)-yl)(5-(1-methyl-3-(trifluoromethyl)-1H-pyrazol-4-yl)-1,3,4-oxadiazol-2-yl)methanone], `O=C(c1cnn2cc(F)c(Cl)cc12)N1CCc2[nH]cnc2[C@H]1c1nc2cc(F)ccc2o1` [Example 219, (S)-(5-chloro-6-fluoropyrazolo[1,5-a]pyridin-3-yl)(4-(5-fluorobenzo[d]oxazol-2-yl)-6,7-dihydro-1H-imidazo[4,5-c]pyridin-5(4H)-yl)methanone] is lower in AC50: 1000 to 5000 nM for the first, at most 500 nM for the second.

`O=C(c1cnn2cc(N3CCC(F)CC3)ccc12)N1CCc2[nH]cnc2[C@@H]1c1nc2c(F)cccc2o1` [Example 478, (R)-(4-(4-fluorobenzo[d]oxazol-2-yl)-6,7-dihydro-1H-imidazo[4,5-c]pyridin-5(4H)-yl)(6-(4-fluoropiperidin-1-yl)pyrazolo[1,5-a]pyridin-3-yl)methanone] and `Cn1cc(-c2ccc3c(C(=O)N4CCc5[nH]cnc5[C@@H]4c4nc5cc(F)ccc5o4)cnn3c2)cn1` [Example 72, (R)-(4-(5-fluorobenzo[d]oxazol-2-yl)-6,7-dihydro-1H-imidazo[4,5-c]pyridin-5(4H)-yl)(6-(1-methyl-1H-pyrazol-4-yl)pyrazolo[1,5-a]pyridin-3-yl)methanone] cannot be ordered by AC50: at least 5000 nM for the first, at least 5000 nM for the second.

`O=C(c1oc(-c2ccc(C(F)(F)F)cn2)nc1C(F)F)N1CCc2[nH]cnc2[C@H]1c1nc2cccc(F)c2o1` [Example 633, (S)-(4-(difluoromethyl)-2-(5-(trifluoromethyl)pyridin-2-yl)oxazol-5-yl)(4-(7-fluorobenzo[d]oxazol-2-yl)-6,7-dihydro-1H-imidazo[4,5-c]pyridin-5(4H)-yl)methanone] and `O=C(c1oc(-c2ccncn2)nc1C(F)F)N1CCc2[nH]cnc2[C@@H]1c1nc2cccc(F)c2o1` [Example 774, (R)-(4-(difluoromethyl)-2-(pyrimidin-4-yl)oxazol-5-yl)(4-(7-fluorobenzo[d]oxazol-2-yl)-6,7-dihydro-1H-imidazo[4,5-c]pyridin-5(4H)-yl)methanone] cannot be ordered by AC50: at most 500 nM for the first, at most 500 nM for the second.

First: CC(C)(O)c1nc(C(F)F)c(C(=O)N2CCc3[nH]cnc3[C@H]2c2nc3c(Br)cccc3o2)o1 [Example 431, (S)-(4-(4-bromobenzo[d]oxazol-2-yl)-6,7-dihydro-1H-imidazo[4,5-c]pyridin-5(4H)-yl)(4-(difluoromethyl)-2-(2-hydroxypropan-2-yl)oxazol-5-yl)methanone]
Second: CC(O)c1nc(Br)c(C(=O)N2CCc3[nH]cnc3[C@@H]2c2nc3cc(F)ccc3o2)o1 (single isomer, unassigned) [Example 223]
The AC50 of the first is lower: at most 500 nM for the first, 1000 to 5000 nM for the second.

`O=C(c1ocnc1C(F)F)N1Cc2[nH]cnc2[C@H]1c1nc2ccccc2o1` [Example 921, (S)-(4-(benzo[d]oxazol-2-yl)-4,6-dihydropyrrolo[3,4-d]imidazol-5(1H)-yl)(4-(difluoromethyl)oxazol-5-yl)methanone] and `O=C(CCc1nccs1)N1CCc2[nH]cnc2[C@@H]1c1nc2cccc(F)c2o1` [Example 386, 1-[(4R)-4-(7-fluoro-1,3-benzoxazol-2-yl)-1,4,6,7-tetrahydroimidazo[4,5-c]pyridin-5-yl]-3-thiazol-2-yl-propan-1-one] cannot be ordered by AC50: 1000 to 5000 nM for the first, at least 5000 nM for the second.

Same assay, conditions: A375 cells expressing R408W PAH; 24 hrs with compound, then 20 μM sepiapterin and 800 μM 13C9,15N-Phenylalanine for 4 hours; 13C-Tyrosine by LC-MS; average where tested multiple times

`Nc1ccc2c(C(=O)N3CCc4[nH]cnc4C3c3nc4cc(F)ccc4o3)cnn2c1` (stereo not shown) and `CN(C)CCNc1ccc2c(C(=O)N3CCc4[nH]cnc4C3c3nc4cc(F)ccc4o3)cnn2c1` (single isomer, unassigned) [4S enantiomer of N-[2-(dimethylamino)ethyl]-3-[4-(5-fluoro-1] cannot be ordered by AC50: at least 5000 nM for the first, at least 5000 nM for the second.

`CC(C)(O)c1ncc(C(=O)N2CCc3[nH]cnc3C2c2nc3cc(F)ccc3o2)o1` (stereo not shown) and `Cc1cccc2nc([C@H]3c4nc[nH]c4CCN3C(=O)c3cnc(C(C)(C)O)o3)oc12` (single isomer, unassigned) cannot be ordered by AC50: 1000 to 5000 nM for the first, at least 5000 nM for the second.

`O=C(c1cnn2cc(N3CCC(O)CC3)ccc12)N1CCc2[nH]cnc2C1c1nc2ccc(F)c(F)c2o1` (stereo not shown) and `O=C(c1cnn2cc(N3CCC(O)CC3)ccc12)N1CCc2[nH]cnc2C1c1nc2c(F)cc(F)cc2o1` (stereo not shown) cannot be ordered by AC50: 1000 to 5000 nM for the first, at least 5000 nM for the second.

`CC(C)(O)c1cc(C(=O)N2CCc3[nH]cnc3C2c2nc3c(F)cccc3o2)on1` (stereo not shown) and `O=C(c1cnco1)N1CCc2[nH]cnc2C1c1nc2c(F)cc(F)cc2o1` (stereo not shown) fall in the same range of AC50: 1000 to 5000 nM for the first, 1000 to 5000 nM for the second.

`Cc1ccc2nc(C3c4nc[nH]c4CCN3C(=O)c3cnco3)oc2c1` (stereo not shown) and `Cn1nccc1C(=O)N1CCc2[nH]cnc2C1c1nc2cc(F)ccc2o1` (stereo not shown) fall in the same range of AC50: 1000 to 5000 nM for the first, 1000 to 5000 nM for the second.

`O=C(c1cnn2cc(CN3CCC(F)(F)C3)ccc12)N1CCc2[nH]cnc2C1c1nc2cc(F)ccc2o1` (stereo not shown) and `O=C(c1cnn2cc(N3CCOCC3)ccc12)N1CCc2[nH]cnc2C1c1nc2cc(F)ccc2o1` (stereo not shown) cannot be ordered by AC50: at least 5000 nM for the first, at least 5000 nM for the second.
